In patent US10301305B2 (priority 2014, dated 2019):
Where a name gives a salt, the structure may show the parent alone. Read-outs that look alike come from different tables or passages of the source.

How the values were obtained:
Format in all cases: biochemical
[1] = molecular target: S. Agalactiae DltA (Streptococcus agalactiae serotype III (strain NEM316), UniProt Q8VM67); assay: in vitro DltA activity assay (luminescence), S. agalactiae DltA
Description: (§1) The effect of the compounds of the invention on DltA enzymes has been based on the measure of their inhibition of DltA activity in vitro. To this end, recombinant proteins DltA were expressed and purified after cloning of the genes of S. aureus, E. faecalis, E. faecium and S. agalactiae as described thereafter. The capacity of the compounds of the invention to inhibit DltA enzymatic activity was assessed using the DltA assays as described below:
(§2) The dltA gene was amplified from chromosomal DNA of S. aureus, E. faecalis, E. faecium and S. agalactiae and introduced into E. coli BL21 (Invitrogen, Carlsbad, Calif.) following manufacturer's instruction. Bacteria were grown at 37° C. under aerobic conditions and isopropyl-beta-D-thiogalactopyranoside (IPTG) was added to 0.5-1 mM when OD600 of the bacterial culture had reached 0.5. After a further incubation for 3 hours, cells were harvested by centrifugation. Purification of the recombinant DltA protein was performed by affinity chromatography on nickel-nitrilotriacetic acid (Ni-NTA) column following manufacturer's instructions (Qiagen). Fractions containing recombinant DltA protein were adjusted to 50% glycerol and stored at −20° C. until use.
(§3) The binding potency of the inhibitors against DltA enzyme was assessed by IC50 determination in an in vitro DltA activity assay. The assay buffer “AB” contained 50 mM Hepes pH8.0, 10 mM MgCl2, 50 mM KCl, 0.012% Triton-X100, 10 mM DTT and 100 nM Myelin-basic protein. The following components were added in a white polystyrene Costar plate up to a final volume of 30 μL: 3 μL DMSO, or inhibitor dissolved in DMSO and 27 μL DltA enzyme in AB. After 30 min of pre-incubation at room temperature, 30 μL of Substrates mix in AB were added in each well to a final volume of 60 μL. This reaction mixture was then composed of DltA (produced in house from S. aureus, E. faecalis, E. faecium and S. agalactiae), 0.5 mM D-Alanine (Sigma), 0.5-5 μM ATP (Sigma) and 0.05 u/ml inorganic pyrophosphatase (Sigma) in assay buffer. After typically 1-2 hours of incubation at room temperature (conversion rate around 30%), 30 μL of the revelation mix were added to a final volume of 90 μL, including the following constituents at the respective final concentrations: 10000 u/ml luciferase (Sigma), 30 μM D-luciferin (Sigma), 100 μM N-acetylcysteamine (Aldrich). Luminescence intensity was immediately measured on a Fluostar Optima (BMG) (excitation 360 nm, emission 520 nm) and converted into inhibition percentages. For IC50 determinations (Inhibitory Concentration 50%) the inhibitor was added at 6 to 10 different concentrations and the related inhibitions were fitted to a classical Langmuir equilibrium model using XLFIT (IDBS).
(§4) For compounds interfering with the luminescent signal (quenching), the same experiment without DltA enzyme was performed to allow quenching determination and correction.

[2] = molecular target: S. aureus DltA (Staphylococcus aureus (strain NCTC 8325 / PS 47), UniProt Q2FZW6); assay: in vitro DltA activity assay (luminescence), S. aureus DltA; conditions: recombinant DltA, 30 min pre-incubation, 0.5 mM D-Alanine, 0.5-5 μM ATP; read-out: S. aureus DltA IC50
Description: as §1, §2, §3, §4

[3] = molecular target: E. feacium DltA (Enterococcus faecium, UniProt Q3XZT7); assay: in vitro DltA activity assay (luminescence), E. faecium DltA; conditions: recombinant DltA, 30 min pre-incubation, 0.5 mM D-Alanine, 0.5-5 μM ATP; read-out: E. feacium DltA IC50
Chain of E. feacium DltA (Q3XZT7 1-504): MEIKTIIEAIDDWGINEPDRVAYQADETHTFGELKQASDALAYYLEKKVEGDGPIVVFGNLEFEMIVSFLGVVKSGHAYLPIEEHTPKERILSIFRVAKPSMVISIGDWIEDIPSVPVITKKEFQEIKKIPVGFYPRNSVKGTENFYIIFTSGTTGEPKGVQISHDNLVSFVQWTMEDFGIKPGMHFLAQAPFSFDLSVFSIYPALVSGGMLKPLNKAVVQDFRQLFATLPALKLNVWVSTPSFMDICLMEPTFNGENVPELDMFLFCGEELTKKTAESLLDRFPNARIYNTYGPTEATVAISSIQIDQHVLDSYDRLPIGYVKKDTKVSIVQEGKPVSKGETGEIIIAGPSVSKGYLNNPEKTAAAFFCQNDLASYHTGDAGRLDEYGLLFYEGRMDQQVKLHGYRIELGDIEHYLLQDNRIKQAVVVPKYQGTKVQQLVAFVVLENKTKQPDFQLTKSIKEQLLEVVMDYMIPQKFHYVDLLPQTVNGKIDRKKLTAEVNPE
Description: as §1, §2, §3, §4

[4] = molecular target: E. feacalis DltA (Enterococcus faecalis, UniProt Q830N0); assay: in vitro DltA activity assay (luminescence), E. faecalis DltA; conditions: recombinant DltA, 30 min pre-incubation, 0.5 mM D-Alanine, 0.5-5 μM ATP; read-out: E. feacalis DltA IC50
Chain of E. feacalis DltA (Q830N0 1-506): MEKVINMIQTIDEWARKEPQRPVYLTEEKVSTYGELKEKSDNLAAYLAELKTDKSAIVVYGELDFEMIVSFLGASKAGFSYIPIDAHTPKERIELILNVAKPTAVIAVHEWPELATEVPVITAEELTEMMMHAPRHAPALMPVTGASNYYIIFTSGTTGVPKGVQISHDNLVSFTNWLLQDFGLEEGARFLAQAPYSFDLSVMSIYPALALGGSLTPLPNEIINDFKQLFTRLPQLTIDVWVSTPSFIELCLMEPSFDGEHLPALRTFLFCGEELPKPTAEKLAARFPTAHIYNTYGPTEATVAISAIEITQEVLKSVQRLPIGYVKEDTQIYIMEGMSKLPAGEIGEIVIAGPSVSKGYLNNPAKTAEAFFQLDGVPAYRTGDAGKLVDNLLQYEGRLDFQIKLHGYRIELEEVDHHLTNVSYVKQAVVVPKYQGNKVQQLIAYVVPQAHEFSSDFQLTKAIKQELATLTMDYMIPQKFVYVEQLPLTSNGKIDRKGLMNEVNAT
Description: as §1, §2, §3, §4

[5] = recombinant DltA, 30 min pre-incubation, 0.5 mM D-Alanine, 0.5-5 μM ATP, read-out: S. Agalactiae DltA IC50

Row | SMILES | IC50 [1] | IC50 [2] | IC50 [3] | IC50 [4] | IC50 [1, 5]
1 | CN1CCC[C@@H]1COc1cc(-c2ccc3c(c2)ncn3C2CCCOC2)c2nc[nH]c2c1C(N)=O (stereo partly drawn) [Example 215, 5-[[(2R)-1-methylpyrrolidin-2-yl]methoxy]-7-(1-tetrahydropyran-3-ylbenzimidazol-5-yl)-3H-benzimidazole-4-carboxamide methanesulfonic acid salt] | 86 nM | 0.8 nM | 5.7 nM | 1.4 nM | –
2 | OC[C@H]1CCN(c2cc3[nH]cnc3c(-c3ccc4c(c3)ncn4C3CCCCC3)n2)C[C@@H]1O [Example 19, (3R,4R)-1-[4-(1-Cyclohexyl-1H-benzimidazol-5-yl)-1H-imidazo[4,5-c]pyridin-6-yl]-4-hydroxymethyl-piperidin-3-ol] | – | 33 nM | 1800 nM | 460 nM | 1900 nM
3 | CN(C)CCN(C)c1cc(-c2cnc3c(c2)CCCO3)c2nc[nH]c2c1C(N)=O [Example 144, 7-(3,4-Dihydro-2H-pyrano[2,3-b]pyridin-6-yl)-5-[(2-dimethylamino-ethyl)-methyl-amino]-3H-benzimidazole-4-carboxamide] | – | 39 nM | 120 nM | 17 nM | 630 nM
4 | CCn1cnc2cc(-c3nc(N(C)CCN(C)C)c(C(N)=O)c4[nH]cnc34)ccc21 [Example 200, 6-[2-(dimethylamino)ethyl-methyl-amino]-4-(1-ethylbenzimidazol-5-yl)-1H-imidazo[4,5-c]pyridine-7-carboxamide] | – | 22 nM | 800 nM | 71 nM | 5400 nM
5 | c1nc2c(-c3ccc4c(c3)ncn4C3CCCCC3)cc(N3CC4CNCC4C3)cc2[nH]1 (stereo not drawn) [Example 36, 1′-Cyclohexyl-6-(hexahydro-pyrrolo[3,4-c]pyrrol-2-yl)-1H,1′H-[4,5′]bibenzimidazolyl] | – | 80 nM | 1100 nM | 170 nM | 3800 nM
6 | COCCn1cnc2cc(-c3cc(N(C)CCN(C)C)c(C(N)=O)c4[nH]cnc34)ccc21 [Example 135] | – | 17 nM | 45 nM | 69 nM | 840 nM
7 | CN1CCC[C@@H]1COc1cc(-c2ccc3c(c2)ncn3C2CCCCC2)c2nc[nH]c2c1C(N)=O [Example 236, 7-(1-cyclohexylbenzimidazol-5-yl)-5-[[(2R)-1-methylpyrrolidin-2-yl]methoxy]-3H-benzimidazole-4-carboxamide methanesulfonic acid salt] | – | 0.4 nM | 3.6 nM | 1.4 nM | 91 nM
8 | NC(=O)c1c(N2CCC(CO)(CO)CC2)cc(-c2ccc3c(c2)ncn3C2CCCCC2)c2nc[nH]c12 [Example 211, 5-[4,4-bis(hydroxymethyl)-1-piperidyl]-7-(1-cyclohexylbenzimidazol-5-yl)-3H-benzimidazole-4-carboxamide] | – | 24 nM | 2 nM | 6.8 nM | 470 nM
9 | O=[N+]([O-])c1c(N2CC[C@H](CO)C2)cc(-c2ccc3c(c2)ncn3C2CCCCC2)c2nc[nH]c12 [Example 43, [(S)-1-(1′-Cyclohexyl-7-nitro-1H,1′H-[4,5′]bibenzimidazolyl-6-yl)-pyrrolidin-3-yl]-methanol] | – | 85 nM | 170 nM | 30 nM | 6300 nM
10 | NC(=O)c1c(N2CC[C@H](CO)C2)cc(-c2ccc3c(c2)ncn3C2CCCCC2)c2nc[nH]c12 [Example 64, 1′-Cyclohexyl-6-((S)-3-hydroxymethyl-pyrrolidin-1-yl)-1H,1′H-[4,5′]bibenzimidazolyl-7-carboxamide] | – | 65 nM | 68 nM | 27 nM | 710 nM
11 | CN(CCO)c1cc(-c2cnc3c(c2)CCCO3)c2nc[nH]c2c1C(N)=O [Example 177, 7-(3,4-Dihydro-2H-pyrano[2,3-b]pyridin-6-yl)-5-[(2-hydroxy-ethyl)-methyl-amino]-3H-benzimidazole-4-carboxamide] | – | 170 nM | 320 nM | 45 nM | 1100 nM
12 | OCC1CCN(c2cc(-c3ccc4c(c3)ncn4C3CCCCC3)c3nc[nH]c3n2)CC1 [Example 3, {1-[7-(1-Cyclohexyl-1H-benzimidazol-5-yl)-3H-imidazo[4,5-b]pyridin-5-yl]-piperidin-4-yl}-methanol] | – | 200 nM | 100 nM | 52 nM | 1400 nM
13 | CN(C)CCN(CCO)c1cc(-c2ccc3c(c2)ncn3C2CCCCC2)c2nc[nH]c2c1C(N)=O [Example 131, 1′-Cyclohexyl-6-[(2-dimethylamino-ethyl)-(2-hydroxy-ethyl)-amino]-1H,1′H-[4,5′]bibenzimidazolyl-7-carboxamide] | – | 75 nM | 230 nM | 40 nM | 1900 nM
14 | c1nc2c(-c3ccc4c(c3)ncn4C3CCCCC3)nc(N3CC4CNCC4C3)cc2[nH]1 (stereo not drawn) [Example 24, 4-(1-Cyclohexyl-1H-benzimidazol-5-yl)-6-(hexahydro-pyrrolo[3,4-c]pyrrol-2-yl)-1H-imidazo[4,5-c]pyridine] | – | 38 nM | 3700 nM | 570 nM | 5200 nM
15 | OCCNc1cc(-c2ccc3c(c2)ncn3C2CCCCC2)c2nc[nH]c2n1 [Example 4, 2-[7-(1-Cyclohexyl-1H-benzimidazol-5-yl)-3H-imidazo[4,5-b]pyridin-5-ylamino]-ethanol] | – | 520 nM | 2200 nM | 380 nM | 3100 nM
16 | CN(C)CCN(C)c1cc(-c2ccc(N(C)C)nc2)c2nc[nH]c2c1C(N)=O [Example 205, 5-[2-(dimethylamino)ethyl-methyl-amino]-7-[6-(dimethylamino)-3-pyridyl]-3H-benzimidazole-4-carboxamide] | – | 140 nM | 30 nM | 9.2 nM | 4300 nM
17 | CN(C)CC1CCCN1c1cc(-c2ccc3c(c2)ncn3C2CCCCC2)c2nc[nH]c2c1C(N)=O (stereo not drawn) [Example 126, 1′-Cyclohexyl-6-(2-dimethylaminomethyl-pyrrolidin-1-yl)-1H,1′H-[4,5′]bibenzimidazolyl-7-carboxamide] | – | 57 nM | 240 nM | 56 nM | 1800 nM
18 | CN(C)CCN(C)c1cc(-c2cncc(N3CCCC3)c2)c2nc[nH]c2c1C(N)=O [Example 230, 5-[2-(dimethylamino)ethyl-methyl-amino]-7-(5-pyrrolidin-1-yl-3-pyridyl)-3H-benzimidazole-4-carboxamide] | – | 64 nM | 280 nM | 30 nM | 2100 nM
19 | CN(C)CCN(C)c1cc(-c2ccc3scnc3c2)c2nc[nH]c2c1C(N)=O [Example 134, 7-Benzothiazol-5-yl-5-[(2-dimethylamino-ethyl)-methyl-amino]-3H-benzimidazole-4-carboxamide] | – | 250 nM | 120 nM | 24 nM | 1100 nM
20 | CN1CCCC1COc1cc(-c2cnc3c(c2)CCCO3)c2nc[nH]c2c1C(N)=O (stereo not drawn) [Example 233, 7-(3,4-dihydro-2H-pyrano[2,3-b]pyridin-6-yl)-5-[(1-methylpyrrolidin-2-yl)methoxy]-3H-benzimidazole-4-carboxamide methanesulfonic acid salt] | – | 6.5 nM | 24 nM | 4.7 nM | 130 nM
21 | CCn1cnc2cc(-c3cc(N(C)CCN(C)C)c(C(N)=O)c4[nH]cnc34)cc(F)c21 [Example 227, 5-[2-(dimethylamino)ethyl-methyl-amino]-7-(1-ethyl-7-fluoro-benzimidazol-5-yl)-3H-benzimidazole-4-carboxamide] | – | 32 nM | 83 nM | 30 nM | 1300 nM
